± gives the expanded uncertainty stated by the source.
Test: xn = mol fraction of the nth substance listed
Settings: 101.3 kPa, Liquid

Q: Which mass density (293.15 K, x1 = 0.0679) does the source give for `Cc1cccc(C)c1` [1,3-dimethylbenzene] + C[S+](C)[O-] here?
A: 1074.3 ± 0.33 kg/m3

Q: What about the mass density (293.15 K, x1 = 0.1489) of the same compound?
A: 1046.5 ± 0.35 kg/m3

Q: What about the mass density (293.15 K, x1 = 0.2044) of the same compound?
A: 1028.97 ± 0.38 kg/m3

Q: What about the mass density (293.15 K, x1 = 0.2613) of the same compound?
A: 1012.13 ± 0.41 kg/m3

Q: What about the mass density (293.15 K, x1 = 0.3487) of the same compound?
A: 988.35 ± 0.47 kg/m3

Q: And the mass density (293.15 K, x1 = 0.3975)?
A: 976.03 ± 0.51 kg/m3

Q: And the mass density (293.15 K, x1 = 0.4578)?
A: 961.7 ± 0.56 kg/m3

Q: And the mass density (293.15 K, x1 = 0.5244)?
A: 946.87 ± 0.61 kg/m3

Q: What about the mass density (293.15 K, x1 = 0.5896) of the same compound?
A: 933.28 ± 0.66 kg/m3

Q: And the mass density (293.15 K, x1 = 0.6597)?
A: 919.61 ± 0.71 kg/m3

Q: What about the mass density (293.15 K, x1 = 0.7393) of the same compound?
A: 905.13 ± 0.77 kg/m3

Q: And the mass density (293.15 K, x1 = 0.8218)?
A: 891.15 ± 0.82 kg/m3

Q: What about the mass density (293.15 K, x1 = 0.8835) of the same compound?
A: 881.33 ± 0.87 kg/m3

Q: What about the mass density (293.15 K, x1 = 0.9412) of the same compound?
A: 872.62 ± 0.9 kg/m3

Q: What about the mass density (303.15 K, x1 = 0.0735) of the same compound?
A: 1063.89 ± 0.32 kg/m3

Q: And the mass density (303.15 K, x1 = 0.1579)?
A: 1035.01 ± 0.35 kg/m3

Q: And the mass density (303.15 K, x1 = 0.2387)?
A: 1010.01 ± 0.39 kg/m3

Q: What about the mass density (303.15 K, x1 = 0.3087) of the same compound?
A: 990.22 ± 0.44 kg/m3

Q: What about the mass density (303.15 K, x1 = 0.3754) of the same compound?
A: 972.78 ± 0.49 kg/m3

Q: And the mass density (303.15 K, x1 = 0.4147)?
A: 963.09 ± 0.52 kg/m3

Q: And the mass density (303.15 K, x1 = 0.4892)?
A: 945.8 ± 0.58 kg/m3

Q: What about the mass density (303.15 K, x1 = 0.5539) of the same compound?
A: 931.86 ± 0.63 kg/m3

Q: What about the mass density (303.15 K, x1 = 0.6209) of the same compound?
A: 918.33 ± 0.68 kg/m3

Q: What about the mass density (303.15 K, x1 = 0.6902) of the same compound?
A: 905.23 ± 0.73 kg/m3

Q: What about the mass density (303.15 K, x1 = 0.7532) of the same compound?
A: 894.02 ± 0.77 kg/m3

Q: And the mass density (303.15 K, x1 = 0.8149)?
A: 883.65 ± 0.82 kg/m3

Q: What about the mass density (303.15 K, x1 = 0.8687) of the same compound?
A: 875.05 ± 0.85 kg/m3

Q: And the mass density (303.15 K, x1 = 0.9373)?
A: 864.64 ± 0.9 kg/m3

Q: What about the mass density (313.15 K, x1 = 0.0854) of the same compound?
A: 1051.04 ± 0.31 kg/m3

Q: And the mass density (313.15 K, x1 = 0.1527)?
A: 1028.01 ± 0.33 kg/m3

Q: And the mass density (313.15 K, x1 = 0.2357)?
A: 1002.14 ± 0.38 kg/m3

Q: What about the mass density (313.15 K, x1 = 0.2978) of the same compound?
A: 984.4 ± 0.43 kg/m3

Q: And the mass density (313.15 K, x1 = 0.3576)?
A: 968.48 ± 0.48 kg/m3

Q: And the mass density (313.15 K, x1 = 0.4077)?
A: 955.97 ± 0.52 kg/m3

Q: And the mass density (313.15 K, x1 = 0.4676)?
A: 941.86 ± 0.56 kg/m3

Q: What about the mass density (313.15 K, x1 = 0.5239) of the same compound?
A: 929.42 ± 0.61 kg/m3

Q: And the mass density (313.15 K, x1 = 0.5823)?
A: 917.24 ± 0.65 kg/m3

Q: What about the mass density (313.15 K, x1 = 0.6521) of the same compound?
A: 903.59 ± 0.7 kg/m3

Q: What about the mass density (313.15 K, x1 = 0.7389) of the same compound?
A: 887.82 ± 0.76 kg/m3

Q: And the mass density (313.15 K, x1 = 0.7912)?
A: 878.91 ± 0.8 kg/m3

Q: What about the mass density (313.15 K, x1 = 0.8513) of the same compound?
A: 869.17 ± 0.84 kg/m3

Q: And the mass density (313.15 K, x1 = 0.9327)?
A: 856.77 ± 0.89 kg/m3

Q: What about the mass density (323.15 K, x1 = 0.0746) of the same compound?
A: 1046.35 ± 0.3 kg/m3

Q: What about the mass density (323.15 K, x1 = 0.1647) of the same compound?
A: 1015.41 ± 0.33 kg/m3

Q: What about the mass density (323.15 K, x1 = 0.2138) of the same compound?
A: 999.97 ± 0.36 kg/m3

Q: And the mass density (323.15 K, x1 = 0.2847)?
A: 979.25 ± 0.42 kg/m3

Q: And the mass density (323.15 K, x1 = 0.3579)?
A: 959.6 ± 0.48 kg/m3

Q: What about the mass density (323.15 K, x1 = 0.4135) of the same compound?
A: 945.75 ± 0.52 kg/m3

Q: What about the mass density (323.15 K, x1 = 0.4724) of the same compound?
A: 931.98 ± 0.57 kg/m3

Q: What about the mass density (323.15 K, x1 = 0.5249) of the same compound?
A: 920.42 ± 0.61 kg/m3

Q: And the mass density (323.15 K, x1 = 0.6038)?
A: 904.17 ± 0.67 kg/m3

Q: What about the mass density (323.15 K, x1 = 0.6739) of the same compound?
A: 890.78 ± 0.72 kg/m3

Q: What about the mass density (323.15 K, x1 = 0.7598) of the same compound?
A: 875.54 ± 0.78 kg/m3

Q: And the mass density (323.15 K, x1 = 0.8133)?
A: 866.63 ± 0.81 kg/m3

Q: And the mass density (323.15 K, x1 = 0.8732)?
A: 857.15 ± 0.85 kg/m3

Q: What about the mass density (323.15 K, x1 = 0.9239) of the same compound?
A: 849.51 ± 0.89 kg/m3

Q: And the mass density (333.15 K, x1 = 0.0673)?
A: 1040.47 ± 0.29 kg/m3

Q: And the mass density (333.15 K, x1 = 0.1568)?
A: 1009.3 ± 0.32 kg/m3

Q: And the mass density (333.15 K, x1 = 0.2249)?
A: 987.86 ± 0.37 kg/m3

Q: And the mass density (333.15 K, x1 = 0.2935)?
A: 968.02 ± 0.43 kg/m3

Q: And the mass density (333.15 K, x1 = 0.3687)?
A: 948.04 ± 0.49 kg/m3

Q: What about the mass density (333.15 K, x1 = 0.4312) of the same compound?
A: 932.71 ± 0.54 kg/m3

Q: What about the mass density (333.15 K, x1 = 0.4921) of the same compound?
A: 918.76 ± 0.59 kg/m3

Q: And the mass density (333.15 K, x1 = 0.5638)?
A: 903.47 ± 0.64 kg/m3

Q: What about the mass density (333.15 K, x1 = 0.6304) of the same compound?
A: 890.23 ± 0.69 kg/m3

Q: And the mass density (333.15 K, x1 = 0.693)?
A: 878.57 ± 0.73 kg/m3

Q: What about the mass density (333.15 K, x1 = 0.7563) of the same compound?
A: 867.46 ± 0.77 kg/m3

Q: What about the mass density (333.15 K, x1 = 0.8137) of the same compound?
A: 857.93 ± 0.81 kg/m3

Q: And the mass density (333.15 K, x1 = 0.8846)?
A: 846.82 ± 0.86 kg/m3

Q: And the mass density (333.15 K, x1 = 0.9355)?
A: 839.26 ± 0.89 kg/m3

Q: What about the mass density (343.15 K, x1 = 0.0647) of the same compound?
A: 1032.84 ± 0.28 kg/m3

Q: What about the mass density (343.15 K, x1 = 0.1491) of the same compound?
A: 1003.11 ± 0.31 kg/m3

Q: And the mass density (343.15 K, x1 = 0.2139)?
A: 982.42 ± 0.36 kg/m3

Q: What about the mass density (343.15 K, x1 = 0.2749) of the same compound?
A: 964.42 ± 0.41 kg/m3

Q: And the mass density (343.15 K, x1 = 0.3588)?
A: 941.76 ± 0.48 kg/m3

Q: What about the mass density (343.15 K, x1 = 0.4395) of the same compound?
A: 921.95 ± 0.55 kg/m3

Q: What about the mass density (343.15 K, x1 = 0.5023) of the same compound?
A: 907.73 ± 0.59 kg/m3

Q: And the mass density (343.15 K, x1 = 0.5539)?
A: 896.74 ± 0.63 kg/m3

Q: And the mass density (343.15 K, x1 = 0.6135)?
A: 884.76 ± 0.67 kg/m3

Q: And the mass density (343.15 K, x1 = 0.675)?
A: 873.12 ± 0.72 kg/m3

Q: What about the mass density (343.15 K, x1 = 0.7523) of the same compound?
A: 859.44 ± 0.77 kg/m3

Q: What about the mass density (343.15 K, x1 = 0.8132) of the same compound?
A: 849.34 ± 0.81 kg/m3

Q: What about the mass density (343.15 K, x1 = 0.8643) of the same compound?
A: 841.29 ± 0.84 kg/m3

Q: What about the mass density (343.15 K, x1 = 0.9247) of the same compound?
A: 832.25 ± 0.88 kg/m3

Q: And the mass density (353.15 K, x1 = 0.0734)?
A: 1020.97 ± 0.27 kg/m3

Q: What about the mass density (353.15 K, x1 = 0.1359) of the same compound?
A: 998.8 ± 0.3 kg/m3

Q: And the mass density (353.15 K, x1 = 0.1844)?
A: 982.84 ± 0.34 kg/m3

Q: What about the mass density (353.15 K, x1 = 0.2258) of the same compound?
A: 970 ± 0.38 kg/m3

Q: What about the mass density (353.15 K, x1 = 0.2844) of the same compound?
A: 952.95 ± 0.43 kg/m3

Q: And the mass density (353.15 K, x1 = 0.3535)?
A: 934.34 ± 0.48 kg/m3

Q: And the mass density (353.15 K, x1 = 0.4241)?
A: 916.83 ± 0.54 kg/m3

Q: What about the mass density (353.15 K, x1 = 0.4798) of the same compound?
A: 903.97 ± 0.58 kg/m3

Q: What about the mass density (353.15 K, x1 = 0.5323) of the same compound?
A: 892.53 ± 0.62 kg/m3

Q: What about the mass density (353.15 K, x1 = 0.6042) of the same compound?
A: 877.86 ± 0.67 kg/m3

Q: And the mass density (353.15 K, x1 = 0.6724)?
A: 864.89 ± 0.72 kg/m3

Q: And the mass density (353.15 K, x1 = 0.7539)?
A: 850.47 ± 0.77 kg/m3

Q: What about the mass density (353.15 K, x1 = 0.8375) of the same compound?
A: 836.8 ± 0.83 kg/m3

Q: And the mass density (353.15 K, x1 = 0.9144)?
A: 825.15 ± 0.88 kg/m3

Reference: the NIST ThermoML archive (doi:10.1016/j.jct.2004.04.004)
